Key:
HepG2 liver cells = assay: Insulin- and glucose-stimulated glycogen synthase activity in stable tissue culture cells; format: cell-based; details: addition of insulin and glucose, in the presence of the GSK3 inhibitor
From the text: Assays for glucose uptake and glycogen synthesis can be conducted as described for cell-based assays generally. To measure glucose uptake and glycogen synthesis, a variety of stable tissue culture cell lines that respond to insulin stimulation by increasing the synthesis of glycogen and increasing the rate of glucose uptake from the medium can be used. These include HepG2 liver cells, CHO-IR cells, and Hirc cells. Under appropriate conditions the addition of insulin and glucose to HepG2 cells stimulates glycogen synthase activity and this stimulation of potentiated in the presence of the GSK3 inhibitor iodotubercidin. The response of glucose uptake in these cells to insulin, glucose and inhibitor can be as much as six fold, and consequently this assay is useful to detect the ability of inhibitors to potentiate glycogen synthesis in cells.

Drosophila cells = assay: β-catenin stabilization assay of intracellular GSK3 activity (western blot); format: cell-based; details: addition to Drosophila cells; detected on a western blot
From the text: Other assays that test functional GSK3 also provide a further test of intracellular GSK3 activity. These assays rely on the ability to observe indirect consequences of GSK3 activity within cells. An example of such an assay involves β-catenin stabilization. Cellular GSK3 activity leads to the destabilization of cytosolic pools of β-catenin in certain types of cell. Consequently, inhibition of GSK3 results in β-catenin stabilization and accumulation, which be detected on a western blot. […] Similarly, LiCl in the cell culture medium causes an increase in intracellular β-catenin levels as described in Stambolic et al, Cur. Biol. 6(12): 1664-8 (1996).

SMILES: Nc1ncnc2c1c(I)cn2[C@@H]1O[C@H](CO)[C@@H](O)[C@H]1O [iodotubercidin]
- stimulation of glycogen synthase activity by insulin and glucose (HepG2 liver cells): potentiated
- β-catenin accumulation (Drosophila cells): leads to β-catenin accumulation
